Experimental findings from US20100105644A1, “BOTANICAL COMPOSITION FOR ENHANCED SKIN REPAIR AND USES THEREOF” (The Regents of the University of Michigan, priority 2008, published 2010) are described below.

Data set [1] relates to MMP-9. Put plainly: MMP-9 (gelatin zymography) in organ culture fluid of skin from topically treated healthy hairless rats. Format: in vivo, rat. To be noted: 10% curcumin / 3% ginger extract topical, skin in organ culture 3 days, compared to control skin. As for the experimental part: (§1) Wounding was performed under sterile conditions in a laminar flow hood. Wound size was determined daily by measuring the X-axis and Y-axis of the scabbed wound and calculating the area of the remaining scab. At the time of wound closure, animals were sacrificed and duplicate 6 mm skin punches were collected from wounded and healed skin. One biopsy was fixed in 10% buffered formalin and used for histological analysis. The other biopsy was put in organ culture for 3 days. Briefly, the skin was cut into pieces of approximately 2 mm on a side, and four-five such pieces were incubated for 3 days in 0.5 mL of a culture medium consisting of growth factor-free, serum-free, Keratinocyte Basal Medium (KBM) (Lonza, Walkersville, Md.). Before use, the culture medium was supplemented with Ca^2+ to a final concentration of 1.4 mM. At the end of the 3-day incubation period, the organ culture fluid was collected and assayed for soluble type I collagen by western blotting and MMP-2 and -9 gelatin zymography (see below).
(§2) Analysis of Metalloproteinases: MMP-2 and MMP-9: Gelatin-embedded enzymography (zymography) was used to assess levels of latent and active MMP-2 and MMP-9 in organ culture fluids. SDS-PAGE gels were prepared with the incorporation of gelatin (1 mg/mL) at the time of casting.

The subject of data set [2] is MMP-1. In words: MMP-1 levels in human dermal fibroblast culture fluid. Format: cell-based. To be noted: increasing amounts of curcumin added to 1 μg per mL ginger extract.
Procedure: Fibroblasts were incubated under control conditions (Ca^2+-supplemented KBM culture medium) or in the same culture medium supplemented with 1 μg per mL ginger extract. Increasing amounts of curcumin (X-axis) were added. […] Fibroblasts were incubated under control conditions (Ca^2+—supplemented KBM culture medium) or in the same culture medium supplemented with 1 μg per mL ginger extract. Increasing amounts of curcumin were added.
For data set [3], the system named is MMP-1. In words: MMP-1 levels in human skin organ culture fluid. Format: cell-based. The settings on record: increasing amounts of curcumin added to 1 μg per mL ginger extract.
Procedure: Human skin was incubated in organ culture under control conditions (Ca^2+-supplemented KBM culture medium) or in the same culture medium with 1 μg per mL ginger extract. Increasing amounts of curcumin were added. […] Human skin was incubated in organ culture under control conditions (Ca^2+-supplemented KBM culture medium) or in the same culture medium with 1 μg per mL ginger extract. Increasing amounts of curcumin were added.
The next data set concerns epidermal keratinocytes. In words: Epidermal keratinocyte proliferation. The text has this:
There are several surprising and unexpected ways in which the combination of curcumin and 6-gingerol functions. First, these compounds promote collagen building in combination. On one hand, the ginger compound serves to raise the level of collagen-degrading enzymes, such as matrix metalloproteinases (MMPs), as one of its functions. On the other hand, the curcumin compound suppresses the MMP elevation stimulated by the ginger compound. Second, the combination promotes vascularization. During wound healing there is the need for new vascularization. However, new vessel growth needs to halt at some point and some vessels need to regress at a time when the wounded skin is fully healed. The ginger compound stimulates new vessel formation and the combination of curcumin and ginger extract result in a reduction in the number of capillaries in the skin at the end of the wound healing. This allows the skin to return to quiescence. Third, the combination promotes epidermal proliferation. Skin irritation is intimately associated with epidermal hyperplasia. The ginger compound stimulates epidermal keratinocyte proliferation while the curcumin compound suppresses ginger extract-induced keratinocyte growth. This may be the underlying factor responsible for the absence of irritation by the combination, for example, as compared to irritation observed with retinoid therapy. […]

The subject of data set [4] is MMP-9. Put plainly: MMP-9 (gelatin zymography) in organ culture fluid of healed wound skin, Temovate rat model. It is filed as in vivo. To be noted: botanical treatment of Temovate-treated rats. Here is the method: as §1, with “At the end of the 3-day incubation period, the organ culture fluid was collected and assayed for soluble type I collagen by western blotting and MMP-2 and -9 gelatin zymography (see below).” left out
(§3) Analysis of Metalloproteinases: MMP-2 and MMP-9: Gelatin-embedded enzymography (zymography) was used to assess levels of latent and active MMP-2 and MMP-9 in organ culture fluids. […] After electrophoresis under non-reducing conditions to separate proteins and overnight incubation to allow for substrate digestion, zones of hydrolysis were identified as “holes” in the stained gels and quantified. Values for latent and active MMPs-2 and -9 bands were obtained following digitization and quantification. […]

In data set [5] the test system is abrasion wounds in skin of corticosteroid-treated hairless rats. In words: Abrasion wound healing in corticosteroid-treated hairless rats. The settings on record: 21 days pretreatment, then 15 days with Temovate; 10% curcumin, 3% ginger extract; compared to Temovate plus vehicle alone. It is filed as in vivo, rat. As for the experimental part: Rat Model: Hairless rats were treated for 21 days topically over the back and flank with 500 μL of solutions containing 10% curcumin, 3% ginger extract or the combination of the two. Vehicle alone served as control. During the treatment phase, animals were examined daily for changes in the gross appearance of the skin. After the initial 21-day pretreatment period, rats were treated with Temovate® (clobetasol propionate) cream along with the botanicals for an additional 15 day period. Temovate® (0.05% solution of clobetasol propionate in cream base) was obtained from Glaxo Smith Kline (Philadelphia, Pa.). Temovate® was applied in the morning and botanicals were applied in the evening. At the end of the treatment period, abrasion wounding was performed. […] A pre-measured circular area, approximately 6 cm in diameter, was scrubbed with a stiff-nylon bristle brush lightly wetted with acetone and concomitantly abraded with a piece of course sanding sponge. […]
Wounding was performed under sterile conditions in a laminar flow hood. Wound size was determined daily by measuring the X-axis and Y-axis of the scabbed wound and calculating the area of the remaining scab. […]
Statistical Analysis: Data were analyzed using one-way analysis of variance (ANOVA) followed by the Bonferroni posttest for selected pairs (GraphPad Prism version 4.00 for Windows, GraphPad Software, San Diego, Calif.). […]

Data set [6] deals with MMP-2. Put plainly: MMP-2 (gelatin zymography) in organ culture fluid of healed wound skin, Temovate rat model. It is filed as in vivo. To be noted: botanical treatment of Temovate-treated rats. As for the experimental part: as §1, with “At the end of the 3-day incubation period, the organ culture fluid was collected and assayed for soluble type I collagen by western blotting and MMP-2 and -9 gelatin zymography (see below).” left out
as §3

Data set [7] concerns type I collagen. Put plainly: Soluble type I collagen (Western blot) in organ culture fluid of skin from topically treated healthy hairless rats. Format: in vivo, rat. The settings on record: 10% curcumin / 3% ginger extract topical, skin in organ culture 3 days, compared to control skin. As for the experimental part:
as §1
For orientation: Immunoblotting shows a protein as a band on a membrane.

The subject of data set [8] is MMP-2. Put plainly: MMP-2 (gelatin zymography) in organ culture fluid of skin from topically treated healthy hairless rats. Format: in vivo, rat. The settings on record: 10% curcumin / 3% ginger extract topical, skin in organ culture 3 days, compared to control skin. Here is the method:
as §1, §2

Data set [9] relates to type I collagen. In words: Soluble type I collagen (Western blot) in organ culture fluid of healed wound skin, Temovate rat model. Format: in vivo. Here is the method: Wounding was performed under sterile conditions in a laminar flow hood. Wound size was determined daily by measuring the X-axis and Y-axis of the scabbed wound and calculating the area of the remaining scab. At the time of wound closure, animals were sacrificed and duplicate 6 mm skin punches were collected from wounded and healed skin. One biopsy was fixed in 10% buffered formalin and used for histological analysis. The other biopsy was put in organ culture for 3 days. […]
Analysis of Type I Collagen: Organ culture fluids were assayed for type I collagen by Western blot analysis. Briefly, organ culture fluids representing an equal quantity of protein were resolved using 8% SDS-PAGE under non-reducing conditions and transferred to nitrocellulose membranes. […] The membranes were then washed with TTBS and bound antibody was detected using the Phototope-HRP western detection kit (Cell Signaling Technologies, Inc., Danvers, Mass.). Images were scanned, digitized, and quantified using NIH image analysis software.
At the time of wound closure, skin from the center of the initial wound (most recently healed skin) was obtained and incubated in organ culture for three days. Organ culture fluids were collected at the end of the incubation period and analyzed for type I collagen and MMP-2/MMP-9. […]

The subject of data set [10] is skin of healthy hairless rats. Put plainly: Topical treatment of healthy hairless rats: gross appearance and irritation of the skin. To be noted: topical once daily for 14 days, 10% curcumin and 3% ginger extract alone and in combination. It is filed as in vivo, rat.
Procedure: The botanicals were dissolved in a vehicle (70% ethanol and 30% propylene glycol) at 10.0% for curcumin and 3% for the ginger extract. The concentrations chosen for the two botanicals were based on results from preliminary in vitro studies and in vivo studies with healthy hairless rats.
Based on in vitro experiments in which a wide range of concentrations of both curcumin and the ginger extract were tested, healthy hairless rats were treated topically once daily for 14 days with solutions containing 10% curcumin and 3% ginger extract, alone and in combination. Control rats were treated with vehicle alone. Animals were monitored closely during the treatment period of any visible changes in gross appearance of the skin. […] At the end of the treatment period, skin from the treated site of each animal was obtained. The skin was incubated in organ culture for 3 days.
Data set [11] can be described thus: In vitro activities of purified 6-gingerol compared with the crude ginger extract. To be noted: 6-gingerol purified to greater than 95%. The text has this: The ginger root is also a source of multiple biologically active gingerol compounds, including 6-gingerol, 8-gingerol, 10-gingerol, 6-paradol, 6-shagoal and cassumunin. 6-gingerol is the most abundant analogue in the extract used here, and represents approximately 32% of the total extract. […] In addition, synthetic curcuminoids and synthetic gingerols are also available. One goal is to have a preparation that is inexpensive to prepare so that individuals at risk for non-healing skin ulcers can utilize it on a long-term basis as a wound preventative.

`COc1cc(/C=C/C(=O)CC(=O)/C=C/c2ccc(O)c(OC)c2)ccc1O` [curcumin, (1E,6E)-1,7-bis(4-hydroxy-3-methoxyphenyl)hepta-1,6-diene-3,5-dione]: the “MMP-9 in organ culture fluid” value with MMP-9 [1] was “decreased”. The “ginger extract-induced MMP-1 expression in fibroblast culture fluid” value with MMP-1 [2] is reported as “inhibited”. Also, the “ginger extract-induced MMP-1 expression in human skin organ culture fluid” value with MMP-1 [3] is listed as “inhibited”. In addition, the “ginger extract-induced keratinocyte growth” value in the data set with epidermal keratinocytes is “suppresses”. For the same molecule, the “MMP-9 level in organ culture fluid” value in the data set on MMP-9 [4] was “reduced”. For the same molecule, the “wound closure (percent of wound healed)” value in data set [5] was “improved”. Moreover, the “MMP-2 level in organ culture fluid” value in the data set on MMP-2 [6] was “reduced”. In the data set with type I collagen [7], the “soluble type I collagen in organ culture fluid” value is on record as “increased”. In the data set with MMP-2 [8], the “MMP-2 in organ culture fluid” value was “decrease”. Besides, the “type I collagen in organ culture fluid” value in the data set with type I collagen [9] (botanicals prior to and during Temovate treatment, compared to rats treated with Temovate and vehicle) is “elevated”; in the data set with type I collagen [9] (treatment along with Temovate, compared to control culture fluids from rats not exposed to Temovate), “higher”. In addition, the skin irritation result in data set [10] was “No irritation”.

As for `CCCCCC(O)CC(=O)CCc1ccc(OC)c(O)c1` (stereo not shown) [6-gingerol, 5-hydroxy-1-(3-hydroxy-4-methoxyphenyl)decan-3-one], the “in vitro activities compared with the crude extract” value in [11] is “same in vitro activities as the crude extract itself”.
